{"source": "paper PMC11982498", "about": "(Redox Biology, 2025)", "key": {"[1]": {"tested_on": "SH-SY5Y cells", "test": "MTT cytotoxicity assay, SH-SY5Y", "assay_type": "cell-based", "procedure": "SH-SY5Y cells, HepG2 cells, HK-2 cells and HT-22 cells were seeded on 96-well plates (5.0×10^3 per well) with 100 μL of culture medium, and incubated for 12 h at 37 °C in a humidified atmosphere with 5% CO2, and then exposed to various concentrations of B14. After 48 h of treatment at 37 °C in a humidified atmosphere with 5% CO2, 100 μL of 0.5 mg/mL MTT solution was added to each well, and the mixture was further incubated for 4 h. The cells in each well were then treated with DMSO (200 μL for each well), and the culture medium was siphoned off, and the absorbance was recorded at 570 nm. All drug doses were parallel tested in triplicate, and the cytotoxicity was evaluated based on the percentage of cell survival in a dose-dependent manner regarding the negative control. The final IC50 values were determined by using Graph Pad Prism 9.0."}, "[2]": {"tested_on": "Aβ deposition in hippocampus of APP/PS1 mice", "test": "Immunofluorescence of hippocampal Aβ deposition", "assay_type": "in vivo", "conditions": "B14 10, 20, 40 mg/kg i.p. every other day", "excerpt": "Five months old male APP/PS1 mice, weighing 25–33 g, were purchased from Guangdong Medical Laboratory Animal Center and housed in the Laboratory Animal Center of Sun Yat-sen University (Guangzhou, China) for experimentation. All procedures were approved by the Animal Care and Use Committee of Sun Yat-sen University and complied with legal requirements and national guidelines for the care and maintenance of laboratory animals (Approval No. SYSU-IACUC-2024-002032). The mice were housed in a specific pathogen-free environment with a controlled temperature of 22 ± 1 °C and a 12-h dark/light cycle. The mice were fed with a standard diet, and 30 mice were randomly divided into 6 groups (N = 5). Compound B14 was dissolved in saline and administered at doses of 10, 20, or 40 mg/kg. APP/PS1 male mice were grown until 6 months of age, and then injected intraperitoneally with compound B14 every other day for 60 days. Behavioral experiments were then conducted, and tissue specimens were collected for biochemical analysis."}, "[3]": {"tested_on": "BCL-2 gene transcription in SH-SY5Y cells", "test": "Real-time RT-PCR in SH-SY5Y cells, BCL-2", "assay_type": "cell-based, human", "procedure": "(§1) SH-SY5Y cells were treated with or without B14, and total RNA was subsequently isolated and purified. Reverse transcription was performed using a cDNA synthesis kit. The relative transcription levels of the genes were evaluated through quantitative real-time PCR using the SYBR Green-based method, as described in the Supplementary Date. Details regarding the primer sequences and the raw data can be found in Table S7 and Table S8.\n(§2) ^a -∆∆Ct = -[(Ct value of genes in treated sample - Ct value of genes in control) - (Ct value of β-actin in treated sample - Ct value of β-actin in control)]. ^b F: The relative expression fold.\n(§3) Experiment 1: SH-SY5Y cells were treated with different concentration of B14. The Ct values of BAX, VEGF, CMYC and BCL-2 were obtained.\n(§4) Total RNA was extracted from cells and mice liver tissue using RNAiso Plus (Takara, 9109, Japan). Following sample homogenization, chloroform was added, and the solution was allowed to have phase separation into an upper aqueous layer (containing RNA), an interphase, and a lower organic layer (containing DNA and proteins). RNA was precipitated from the aqueous phase using isopropanol, while DNA was precipitated from the aqueous-organic interphase using ethanol. Complementary DNA (cDNA) was synthesized using the One-Step RT-PCR Kit (Takara, Cat#639503, Japan).\n(§5) Quantitative real-time polymerase chain reaction (qRT-PCR) was performed using the 2× RealStar SYBR Mixture (GenStar, Cat# A301-10, Guangzhou, China) on a LightCycler 480 II real-time PCR system (Roche, USA). Data were analyzed using the 2^−ΔΔCt method. Actin served as the internal control, and relative mRNA levels were normalized accordingly."}, "[4]": {"tested_on": "BAX, Cleaved Caspase 3, Cleaved Caspase 9, Cyto-C, Apaf-1 in SH-SY5Y cells", "test": "Western blot of apoptosis related proteins in Aβ1-42 induced cell model", "assay_type": "cell-based", "conditions": "25 μM Aβ1-42 induced model", "procedure": "Protein samples (25–40 μg) were separated using 10 % SDS-PAGE and subsequently transferred onto PVDF membranes (0.22 μm, Servicebio, Guangzhou, China) via electro transfer. Following blocking with TBST solution (Servicebio, Guangzhou, China) containing 5 % BSA (Solarbio, Beijing, China) for approximately 60 min at room temperature, the membrane was exposed to various primary antibodies overnight at 4 °C on a rotating shaker. Then, the membranes were incubated with HRP-conjugated secondary antibody (Affinity, Changzhou, China) for 2 h. Protein bands were then detected using an ECL kit. The signal intensity of each target protein was quantified using Image J 1.8.0 software (Bio-Rad Laboratories, California, USA).\nPrimary antibodies for Western blot analysis include BCL-2 (affinity biosciences OH, Cat# AF6139, USA), BAX (affinity biosciences OH, Cat# AF0120, USA), VEGF (affinity biosciences OH, Cat# AF5131, USA), C-MYC (affinity biosciences OH, Cat# AF0358, USA), Caspase9 (affinity biosciences OH, Cat# AF6348, USA), cleaved-Caspase9 (affinity biosciences OH, Cat# AF5240, USA), Caspase3 (affinity biosciences OH, Cat# AF6311, USA), cleaved-Caspase3 (affinity biosciences OH, Cat# AF7022, USA), and Cyto-C (affinity biosciences OH, Cat# AF6139, USA)."}, "[5]": {"tested_on": "bEnd.3 in vitro BBB model", "test": "Measurement of in vitro BBB transport (bEnd.3 transwell)", "assay_type": "in vitro ADME", "procedure": "bEnd.3 (10 × 10^4 cells/well) was cultured in the upper chamber of a 12 wells-plate within a transwell system. The transepithelial electrical resistance (TEER) was measured to monitor the tightness of the monolayer, and the monolayer of cells with a minimum of 200 Ω cm^2 was used for further experiments."}, "[6]": {"tested_on": "VEGF gene transcription in SH-SY5Y cells", "test": "Real-time RT-PCR in SH-SY5Y cells, VEGF", "assay_type": "cell-based, human", "procedure": "as §1, §2, §3, §4, §5"}, "[7]": {"target": "BCL-2 G-quadruplex (BCL-2 G4)", "test": "MST binding to BCL-2 G-quadruplex", "conditions": "Tris-HCl buffer pH 7.4", "procedure": "After incubation of DNA with compound for 60 min, the sample was loaded in MST-grade glass capillaries. The intensity of the LED power was set at 20 %, and the MST laser was set at 40 %. The analyses were performed using a Monolith NT.115, and the fitting curve was obtained by using NT Analysis 1.5.41 via Hill fitting. The KD value represents the numeric equivalent of the concentration of B14 when the response is half of the plateau response (Rmax) of the fitting curve."}}, "data": [{"compound": "O=C(CCN1CCOCC1)Nc1ccc2c(c1)c(=O)c1cc(NC(=O)CCN3CCOCC3)ccc1n2-c1ccc2occc2c1", "note": "[Compound B14]", "values": [{"measurement": "toxicity to SH-SY5Y cells (viability)", "setting": "[1]", "result": "no significant toxicity to SH-SY5Y cells"}, {"measurement": "IC50", "setting": "[1]; Homo sapiens, SH-SY5Y, incubation for 48 h", "result": "> 100", "unit": "µM"}, {"measurement": "hippocampal Aβ deposition", "setting": "[2]", "result": "significantly reduced in a dose-dependent manner"}, {"measurement": "-∆∆Ct, BCL-2", "setting": "[3]; 6.25 μM B14", "result": -0.31}, {"measurement": "F = 2^-∆∆Ct (relative expression fold), BCL-2", "setting": "[3]; 6.25 μM B14", "result": 1.23}, {"measurement": "-∆∆Ct, BCL-2", "setting": "[3]; 12.5 μM B14", "result": -0.73}, {"measurement": "F = 2^-∆∆Ct (relative expression fold), BCL-2", "setting": "[3]; 12.5 μM B14", "result": 1.65}, {"measurement": "-∆∆Ct, BCL-2", "setting": "[3]; 25 μM B14", "result": -1.11}, {"measurement": "F = 2^-∆∆Ct (relative expression fold), BCL-2", "setting": "[3]; 25 μM B14", "result": 2.15}, {"measurement": "levels of pro-apoptotic proteins (Western blot)", "setting": "[4]", "result": "decreased levels of pro-apoptotic proteins"}, {"measurement": "Permeability", "setting": "[5]; 6 h", "result": 45.80, "unit": "%"}, {"measurement": "Permeability", "setting": "[5]; 24 h", "result": 55.74, "unit": "%"}, {"measurement": "-∆∆Ct, VEGF", "setting": "[6]; 6.25 μM B14", "result": -0.01}, {"measurement": "F = 2^-∆∆Ct (relative expression fold), VEGF", "setting": "[6]; 6.25 μM B14", "result": 1.00}, {"measurement": "-∆∆Ct, VEGF", "setting": "[6]; 12.5 μM B14", "result": -0.01}, {"measurement": "F = 2^-∆∆Ct (relative expression fold), VEGF", "setting": "[6]; 12.5 μM B14", "result": 1.00}, {"measurement": "-∆∆Ct, VEGF", "setting": "[6]; 25 μM B14", "result": -0.03}, {"measurement": "F = 2^-∆∆Ct (relative expression fold), VEGF", "setting": "[6]; 25 μM B14", "result": 1.02}, {"measurement": "Kd", "setting": "[7]", "result": 59.8, "unit": "µM"}]}]}
